Test results from patent US20230382928A1, “EUROPIUM(III) COMPLEXES AS PH SENSORS” (CISBIO BIOASSAYS, priority 2020, published 2023).

What was measured:
[1] = Excited state (emission) lifetime at different pH; format: physicochemical
Experimental: (§2) An emission lifetime value at each pH was obtained by plotting the decay of the emission lifetime over time and fitting the curve to a simple exponential decay model. The pKa values of the complexes were determined for the reversible protonation.

[2] = Quantum yield of europium complexes at different pH; format: physicochemical; conditions: for Q.Y. pH 4 / Q.Y. pH 8: text gives the same values in %; for Q.Y. pH 4 / ΦpH 4 (quantum yield): pH 4; for ΦpH 4 (quantum yield) / ΦpH 8 (quantum yield): λexc 330-332 nm; for ΦpH 8 (quantum yield) / Q.Y. pH 8: pH 8
Experimental: The properties of representative complexes of the invention (complexes 14, 18, 21, 78a, 78b, 88a, 88b, 93, 104) were investigated. The presence of the Boc-group was not predicted to alter these properties. The experiments were thus carried out with the Boc group for the functionalized complexes. […]
(§1) Traditionally, molar extinction coefficients, ε, are calculated using the Beer-Lambert equation and involve measuring the absorbance of a series of solutions of a complex at different known concentrations. A plot of absorbance at a particular wavelength against concentration allows determination of ε from the gradient of the linear correlation. The quantum yield (QY) of the complexes increases as the pH decreases. For complexes 78b, 88a, 88b and 93, the quantum yield at pH 8 is approaching 0 meaning that the complexes are therefore hardly emissive at physiological pH and conversely, these complexes are very bright at pH 4.

[3] = pKa determination from emission lifetime variation versus pH
Experimental: as §2

[4] = Absorption spectra / molar extinction coefficient (Beer-Lambert); format: physicochemical; conditions: for λexc (nm): excitation wavelength; for ε: molar extinction coefficient at λexc
Experimental: The properties of representative complexes of the invention (complexes 14, 18, 21, 78a, 78b, 88a, 88b, 93, 104) were investigated. The presence of the Boc-group was not predicted to alter these properties. The experiments were thus carried out with the Boc group for the functionalized complexes. The absorption and emission spectra were recorded in a pH gradient (pH 4 to pH 10).
as §1
This could be useful as excitation at, or near, this wavelength would allow equal excitation of both the unprotonated and protonated complex, which exist in a pH-dependent equilibrium in solution. An isosbestic point was not observed for Complex 14.

[5] = Fluorescence intensity at 620 nm as a function of pH (Pherastar FS plate reader); format: physicochemical; conditions: pH 4 to pH 7.8; 0.1% BSA; FIG. 29
Experimental: The fluorescence intensity of representative complexes of the invention (78a, 78b, 104) was measured using a Plate Reader Pherastar FS equipped with a flash lamp. The buffers (pH 4 to pH 7.8) were distributed in a white 96-well plate, then the lanthanide complexes (10 μL at 110 nM) were distributed in an aqueous solution comprising 0.1% BSA. By way of comparison, the fluorescence intensity of the following complexes was also measured: […]

[6] = Time-gated emission intensity, pH 4/pH 8 ratio; format: physicochemical; conditions: λem=613.5 nm
Text: Data was normalised for a 60 μs delay at pH 4.
Data were normalised for a 60-460 μs time window at pH 4. Measurements were taken in NH4CH3CO2 (pH 4 and 5), MES (pH 5.5, 6 and 6.5), HEPES (pH 7) and NH4HCO3 (pH 8) buffers (all 0.1 M with 0.1 M NaCl).
A benefit of the long-lived lifetime of emission for the lanthanides is the possibility of performing time-gated measurements. Further to this, as a result of the ‘switch-on’ nature of complex 18, the unprotonated and protonated forms differ in emission lifetime. These properties allow the unique opportunity to control, to some degree, the apparent pKa value as well as the relative degree of ‘switching-on’ of the probe by changing the time window. This aspect is illustrated in practice using appropriate buffers of different pH (in the presence of 0.1 M NaCl) in FIG. 28.
By measuring the emission intensity of the hypersensitive ΔJ=2 band at different pH with a longer delay time after excitation (FIG. 28 top), a shallower curve was obtained (a lower apparent pKa).
A summary of the ratios of emission intensity (at λem=613.5 nm) at pH 4 (sensor on) and pH 8 (sensor off), where the emission signal was measured between different time windows, for complex 18 is presented in Table 4.
The extent of the switch-on response of the complex may be quantified, for comparison purposes, as the ratio of the emission intensity at the maximum of the ΔJ=2 band at pH 4, when the sensor is fully switched ‘on’, and pH 8, when the sensor is effectively ‘off’.

SMILES: CCN(CC)c1cc(C#Cc2cc(CN3CCN(Cc4cc(C#Cc5ccc(OCCCC(=O)O)c(N(CC)CC)c5)cc(P(C)(=O)[O-])n4)CCN(Cc4cc(CCCNC(=O)OC(C)(C)C)cc(P(C)(=O)[O-])n4)CC3)nc(P(C)(=O)[O-])c2)ccc1OCCCC(=O)O.[Eu+3] [Complex 77a]
- Excited state lifetime ([1]; pH 4): 0.97 ms
- Excited state lifetime ([1]; pH 5): 0.95 ms
- Excited state lifetime ([1]; pH 6): 0.53 ms
- Excited state lifetime ([1]; pH 7): 0.39 ms
- Excited state lifetime ([1]; pH 8): 0.27 ms

SMILES: CCN(CCCS(=O)(=O)O)c1cc(C#Cc2cc(CN3CCN(Cc4cc(C#Cc5ccc(OC)c(N(CC)CCCS(=O)(=O)O)c5)cc(P(C)(=O)O)n4)CCN(Cc4cc(CCCNC(=O)OC(C)(C)C)cc(P(C)(=O)O)n4)CC3)nc(P(C)(=O)O)c2)ccc1OC [Complex 88a]
- Q.Y. pH 4 [2]: 13.4%
- ΦpH 4 (quantum yield) [2]: 13.4%
- ΦpH 8 (quantum yield) [2]: 0.06%
- pKa ([3]; 0.1 M NaCl (ionic strength)): 5.2
- Excited state lifetime ([1]; pH 4): 1.07 ms
- Excited state lifetime ([1]; pH 5): 0.76 ms
- Excited state lifetime ([1]; pH 6): 0.41 ms
- Excited state lifetime ([1]; pH 7): 0.29 ms
- Excited state lifetime ([1]; pH 8): 0.31 ms
- Excited state lifetime ([1]; pH 9): 0.31 ms
- ε (molar extinction coefficient) ([4]; at the wavelength (330-336 nm)): 35000 M⁻¹ cm⁻¹
- λexc (nm) [4]: 332 nm
- ε [4]: 35000 M⁻¹ cm⁻¹

SMILES: CCN(C)c1cc(C#Cc2cc(CN3CCN(Cc4cc(C#Cc5ccc(OCCCC(=O)NCCCS(=O)(=O)[O-])c(N(C)CC)c5)cc(P(C)(=O)[O-])n4)CCN(Cc4cc(CCCNC(=O)OC(C)(C)C)cc(P(C)(=O)[O-])n4)CC3)nc(P(C)(=O)[O-])c2)ccc1OCCCC(=O)NCCCS(=O)(=O)[O-].[Eu+3] [Complex 78b]
- Q.Y. pH 4 [2]: 14.5%
- ΦpH 4 (quantum yield) [2]: 14.5%
- ΦpH 8 (quantum yield) [2]: 0.01%
- variation of fluorescence intensity at 620 nm as a function of pH [5]: pH sensitive
- pKa ([3]; 295 K, I = 0.1M NaCl): 5.34
- Excited state lifetime ([1]; pH 4): 1.05 ms
- Excited state lifetime ([1]; pH 5): 0.77 ms
- Excited state lifetime ([1]; pH 6): 0.42 ms
- Excited state lifetime ([1]; pH 7): 0.29 ms
- Excited state lifetime ([1]; pH 8, listed as 78b): 0.3 ms
- Excited state lifetime ([1]; pH 8, listed as drawing 110): 0.30 ms
- ε (molar extinction coefficient) ([4]; at the wavelength (330-331 nm)): 39000 L M^−1 cm^−1
- λexc (nm) [4]: 330 nm
- ε [4]: 39000 M⁻¹ cm⁻¹

SMILES: CCN(CC)c1cc(C#Cc2cc(CN3CCN(Cc4cc(C#Cc5ccc(OCCCC(=O)NCCCS(=O)(=O)[O-])c(N(CC)CC)c5)cc(P(C)(=O)[O-])n4)CCN(Cc4cc(CCCNC(=O)OC(C)(C)C)cc(P(C)(=O)[O-])n4)CC3)nc(P(C)(=O)[O-])c2)ccc1OCCCC(=O)NCCCS(=O)(=O)[O-].[Eu+3] [Complex 78a]
- Q.Y. pH 4 [2]: 16%
- ΦpH 4 (quantum yield) [2]: 16%
- Q.Y. pH 8 [2]: 0.3%
- ΦpH 8 (quantum yield) [2]: 0.3%
- variation of fluorescence intensity at 620 nm as a function of pH [5]: pH sensitive
- pKa ([3]; 295 K, I = 0.1M NaCl): 6.20
- Excited state lifetime ([1]; pH 4): 1.04 ms
- Excited state lifetime ([1]; pH 5): 0.98 ms
- Excited state lifetime ([1]; pH 6, listed as 78a): 0.7 ms
- Excited state lifetime ([1]; pH 6, listed as drawing 109): 0.70 ms
- Excited state lifetime ([1]; pH 7): 0.34 ms
- Excited state lifetime ([1]; pH 8): 0.25 ms
- ε (molar extinction coefficient) ([4]; at the wavelength (330-331 nm)): 39000 L M^−1 cm^−1
- λexc (nm) [4]: 330 nm
- ε [4]: 39000 M⁻¹ cm⁻¹

SMILES: CCN(CC)c1cc(C#Cc2cc(CN3CCN(Cc4cc(C#Cc5ccc(OC)c(N(CC)CC)c5)cc(P(C)(=O)[O-])n4)CCN(Cc4cc(C#Cc5ccc(OC)c(N(CC)CC)c5)cc(P(C)(=O)[O-])n4)CC3)nc(P(C)(=O)[O-])c2)ccc1OC.[Eu+3] [Complex 21]
- Q.Y. pH 4 [2]: 17%
- Q.Y. pH 8 [2]: 0.1%
- pKa ([3]; 295 K, I = 0.1M NaCl): 6.21
- Excited state lifetime ([1]; pH 4): 0.84 ms
- Excited state lifetime ([1]; pH 5): 0.83 ms
- Excited state lifetime ([1]; pH 6): 0.59 ms
- Excited state lifetime ([1]; pH 7): 0.32 ms
- Excited state lifetime ([1]; pH 8): 0.25 ms
- Excited state lifetime ([1]; pH 9): 0.24 ms
- ε (molar extinction coefficient) ([4]; at the wavelength (330-331 nm)): 45000 L M^−1 cm^−1
- λexc (nm) [4]: 331 nm
- ε [4]: 45000 M⁻¹ cm⁻¹

SMILES: CCN(CC)c1cc(C#Cc2cc(CN3CCN(Cc4cccc(P(C)(=O)[O-])n4)CCN(Cc4cccc(P(C)(=O)[O-])n4)CC3)nc(P(C)(=O)[O-])c2)ccc1OC.[Eu+3] [Complex 14]
- Q.Y. pH 4 [2]: 16.8%
- ΦpH 4 (quantum yield) [2]: 16.8%
- Q.Y. pH 8 [2]: 0.5%
- ΦpH 8 (quantum yield) [2]: 0.5%
- pKa ([3]; 295 K, I = 0.1M NaCl): 6.75
- Excited state lifetime ([1]; pH 4): 1.16 ms
- Excited state lifetime ([1]; pH 5): 1.15 ms
- Excited state lifetime ([1]; pH 6): 1.06 ms
- Excited state lifetime ([1]; pH 7): 0.74 ms
- Excited state lifetime ([1]; pH 8): 0.53 ms
- Excited state lifetime ([1]; pH 9, listed as 14): 0.5 ms
- Excited state lifetime ([1]; pH 9, listed as drawing 59): 0.50 ms
- isosbestic point ([4]; absorption spectra pH 4 to 10): not observed
- ε (molar extinction coefficient) ([4]; at the wavelength (330-336 nm)): 11450 M⁻¹ cm⁻¹
- λexc (nm) [4]: 331 nm
- ε [4]: 11450 M⁻¹ cm⁻¹

SMILES: CCN(CC)c1cc(C#Cc2cc(CN(CC(=O)O)CC(=O)O)nc(CN(CC(=O)O)CC(=O)O)c2)ccc1OCCCN [Complex 104]
- Q.Y. pH 4 [2]: 3.2%
- ΦpH 4 (quantum yield) [2]: 3.2%
- Q.Y. pH 8 [2]: 0.17%
- ΦpH 8 (quantum yield) [2]: 0.17%
- variation of fluorescence intensity at 620 nm as a function of pH [5]: pH sensitive
- pKa ([3]; 0.1 M NaCl (ionic strength)): 6.35
- Excited state lifetime ([1]; pH 4): 0.38 ms
- Excited state lifetime ([1]; pH 5): 0.37 ms
- Excited state lifetime ([1]; pH 6): 0.35 ms
- Excited state lifetime ([1]; pH 7): 0.32 ms
- Excited state lifetime ([1]; pH 8, listed as 104): 0.3 ms
- Excited state lifetime ([1]; pH 8, listed as drawing 127): 0.30 ms
- ε (molar extinction coefficient) ([4]; at the wavelength (330-336 nm)): 12000 M⁻¹ cm⁻¹
- λexc (nm) [4]: 330 nm
- ε [4]: 12000 M⁻¹ cm⁻¹

SMILES: CCN(CC)c1cc(C#Cc2cc(CN3CCN(Cc4cccc(P(C)(=O)[O-])n4)CCN(Cc4cc(C#Cc5ccc(OC)c(N(CC)CC)c5)cc(P(C)(=O)[O-])n4)CC3)nc(P(C)(=O)[O-])c2)ccc1OC.[Eu+3] [Complex 18]
- Q.Y. pH 4 [2]: 17.6%
- Q.Y. pH 8 [2]: 0.2%
- pKa ([3]; 295 K, I = 0.1M NaCl): 6.3
- Excited state lifetime ([1]; pH 3): 1 ms
- Excited state lifetime ([1]; pH 4, listed as 18): 1 ms
- Excited state lifetime ([1]; pH 4, listed as drawing 63): 1.00 ms
- Excited state lifetime ([1]; pH 5): 0.96 ms
- Excited state lifetime ([1]; pH 6): 0.78 ms
- Excited state lifetime ([1]; pH 7): 0.47 ms
- Excited state lifetime ([1]; pH 8): 0.34 ms
- Excited state lifetime ([1]; pH 9): 0.34 ms
- λexc (nm) [4]: 328 nm
- ε [4]: 35000 M⁻¹ cm⁻¹
- ratio of emission intensity pH 4/pH 8 ([6]; time window 60-460 μs): 32
- ratio of emission intensity pH 4/pH 8 ([6]; time window 1000-2000 μs): 227
- ratio of emission intensity pH 4/pH 8 ([6]; time window 1500-2500 μs): 465
